The conditions of data set [1]: phosphatidylglycerol/phosphatidylcholine (Beschiaschvili and Seelig, 1990); cited from earlier work.
Data set [2] relates to human red blood cells (hRBC). The data set is described as follows: Hemolysis of human red blood cells. Type of data set: cell-based. As to conditions: for % hemolysis at 50 μM peptide / % hemolysis at 100 μM: 30 min at 37° C.; for hemolytic activity (dose response): up to maximum concentration tested (50 μM). Here is the method:
(ix) Hemolysis of human red blood cells. The peptides were tested for their hemolytic activities against human red blood cells (hRBC). Fresh hRBC with EDTA were rinsed 3 times with PBS (35 mM phosphate buffer/0.15 M NaCl, pH 7.3) by centrifugation for 10 min at 800 g and resuspended in PBS. Peptides dissolved in PBS were then added to 50 μL of a solution of the stock hRBC in PBS to reach a final volume of 100 μL (final erythrocyte concentration, 5% v/v). The resulting suspension was incubated under agitation for 30 min at 37° C. The samples were then centrifuged at 800 g for 10 min. Release of hemoglobin was monitored by measuring the absorbance of the supernatant at 540 nm. Controls for zero hemolysis (blank) and 100% hemolysis consisted of hRBC suspended in PBS and Triton 1%, respectively.

The nature of data set [3]: Membrane permeation, diffusion potential assay. As to conditions: zwitterionic vesicles. On the procedure:
(xi) Membrane permeation induced by the peptides. Membrane permeation was assessed utilizing the diffusion potential assay (Loew et al., 1983; Sims et al., 1974) as previously described (Shai et al., 1991). In a typical experiment, in a glass tube, 4 μl of a liposomes suspension (final phospholipids concentration of 33 μM), in a K^+ containing buffer (50 mM K2 SO4, 25 mM HEPES-SO4^-2, pH 6.8), was diluted in 1 ml of an isotonic K^+ free buffer (50 mM Na2 SO4, 25 mM HEPES-SO4^-2, pH 6.8), and the fluorescent, potential-sensitive dye diS-C2 -5 was then added. Valinomycin (1 μl of 10^-7 M) was added to the suspension in order to slowly create a negative diffusion potential inside the vesicles, which led to a quenching of the dye's fluorescence. Once the fluorescence had stabilized, which took 3-10 minutes, peptides were added. The subsequent dissipation of the diffusion potential, as reflected by an increase in fluorescence, was monitored on a Perkin Elmer LS-50B spectrofluorometer, with the excitation set at 620 nm, the emission at 670 nm, and the gain adjusted to 100%. The percentage of fluorescence recovery, Ft, was defined as:
where I0 =the initial fluorescence, If =the total fluorescence observed before the addition of valinomycin, and It =the fluorescence observed after adding the peptide at time t.

In a further data set the test system is Bacillus megaterium Bm11. The data set is described as follows: Antibacterial activity (MIC), growth inhibition in 96-well plates. Type of data set: cell-based. To be noted: 100% inhibition of growth after 18-20 h at 37° C.
The test system of the next data set is Escherichia coli D21. The description is as above. Type of data set: cell-based. To be noted: 100% inhibition of growth after 18-20 h at 37° C.
For data set [4], the system named is Acinetobacter calcoaceticus Ac11. The data set is described as above. The class given is cell-based. As to conditions: 100% inhibition of growth after 18-20 h at 37° C.

The text below walks through data of patent US6172038A, “Antipathogenic peptides and compositions comprising them” (priority 1996, dated 2001).

Where no end group is shown, it is not given here. [ ]: non-standard residue; d: D form.

Turning to `CC[C@H](C)[C@H](NC(=O)CN)C(=O)NCC(=O)N[C@@H](C)C(=O)N[C@H](C(=O)N[C@@H](CC(C)C)C(=O)N[C@@H](CCCCN)C(=O)N[C@H](C(=O)N[C@@H](CC(C)C)C(=O)N[C@H](C(=O)N[C@H](C(=O)NCC(=O)N[C@@H](CC(C)C)C(=O)N1CCC[C@H]1C(=O)N[C@@H](C)C(=O)N[C@@H](CC(C)C)C(=O)N[C@H](C(=O)N[C@@H](CO)C(=O)N[C@@H](Cc1c[nH]c2ccccc12)C(=O)N[C@H](C(=O)N[C@@H](CCCCN)C(=O)N[C@@H](CCCNC(=N)N)C(=O)N[C@@H](CCCCN)C(=O)N[C@@H](CCCNC(=N)N)C(=O)N[C@@H](CCC(N)=O)C(=O)N[C@@H](CCC(N)=O)C(N)=O)[C@@H](C)CC)[C@@H](C)CC)[C@@H](C)O)[C@@H](C)O)C(C)C)C(C)C` [Melittin, reference compound], the “surface partition coefficient reported for melittin” value in data set [1] was 4.5±0.6×10^4 M^-1. In data set [2], the “% hemolysis at 50 μM peptide” value is 100% and the “hemolytic activity (dose response)” value is reported as “the most hemolytic”. Besides, the “membrane permeating activity with PC vesicles” value in data set [3] is “highly active”.

Turning to `CC[C@H](C)[C@H](NC(=O)[C@H](CCCCN)NC(=O)[C@H]1CCCN1C(=O)[C@@H](NC(=O)[C@H](CC(C)C)NC(=O)[C@H](C)NC(=O)[C@H](Cc1ccccc1)NC(=O)[C@H](Cc1ccccc1)NC(=O)CN)[C@@H](C)CC)C(=O)N[C@H](C(=O)N[C@@H](CO)C(=O)N[C@@H](CO)C(=O)N1CCC[C@H]1C(=O)N[C@@H](CC(C)C)C(=O)N[C@@H](Cc1ccccc1)C(=O)N[C@@H](CCCCN)C(=O)N[C@H](C(=O)N[C@H](CC(C)C)C(=O)N[C@H](CC(C)C)C(=O)N[C@@H](CO)C(=O)N[C@@H](C)C(=O)N[C@H](C(=O)NCC(=O)N[C@@H](CO)C(=O)N[C@@H](C)C(=O)N[C@@H](CC(C)C)C(=O)N[C@@H](CO)C(=O)N[C@@H](CO)C(=O)N[C@@H](CO)C(=O)NCC(=O)NCC(=O)N[C@@H](CCC(N)=O)C(=O)N[C@@H](CCC(=O)NCCN)C(=O)NCCN)C(C)C)[C@@H](C)O)[C@@H](C)CC` [Peptide 1], the “hemolytic activity (dose response)” value in data set [2] is recorded as “practically devoid of hemolytic activity”.

As for `CC[C@H](C)[C@H](NC(=O)[C@H](CCCCN)NC(=O)[C@@H]1CCCN1C(=O)[C@@H](NC(=O)[C@H](CC(C)C)NC(=O)[C@H](C)NC(=O)[C@H](Cc1ccccc1)NC(=O)[C@H](Cc1ccccc1)NC(=O)CN)[C@@H](C)CC)C(=O)N[C@H](C(=O)N[C@@H](CO)C(=O)N[C@@H](CO)C(=O)N1CCC[C@H]1C(=O)N[C@@H](CC(C)C)C(=O)N[C@@H](Cc1ccccc1)C(=O)N[C@@H](CCCCN)C(=O)N[C@H](C(=O)N[C@@H](CC(C)C)C(=O)N[C@@H](CC(C)C)C(=O)N[C@@H](CO)C(=O)N[C@@H](C)C(=O)N[C@H](C(=O)NCC(=O)N[C@@H](CO)C(=O)N[C@@H](C)C(=O)N[C@@H](CC(C)C)C(=O)N[C@@H](CO)C(=O)N[C@@H](CO)C(=O)N[C@@H](CO)C(=O)NCC(=O)NCC(=O)N[C@@H](CCC(N)=O)C(=O)N[C@@H](CCC(=O)NCCN)C(=O)NCCN)C(C)C)[C@@H](C)O)[C@@H](C)CC` [Peptide 8, TApar], the “hemolytic activity (dose response)” value in data set [2] was “the most hemolytic”.

Turning to `CC[C@@H](C)[C@@H](NC(=O)[C@H](CC(C)C)NC(=O)[C@H](C)NC(=O)[C@@H]1CCCN1C(=O)[C@H](CC(C)C)NC(=O)CNC(=O)[C@@H](NC(=O)[C@@H](NC(=O)[C@H](CC(C)C)NC(=O)[C@H](NC(=O)[C@H](CCCCN)NC(=O)[C@H](CC(C)C)NC(=O)[C@H](NC(=O)[C@H](C)NC(=O)CNC(=O)[C@@H](NC(=O)CN)[C@@H](C)CC)C(C)C)C(C)C)[C@@H](C)O)[C@@H](C)O)C(=O)N[C@@H](CO)C(=O)N[C@@H](Cc1c[nH]c2ccccc12)C(=O)N[C@H](C(=O)N[C@H](CCCCN)C(=O)N[C@@H](CCCNC(=N)N)C(=O)N[C@@H](CCCCN)C(=O)N[C@@H](CCCNC(=N)N)C(=O)N[C@@H](CCC(N)=O)C(=O)N[C@@H](CCC(N)=O)C(=O)O)[C@@H](C)CC` [Peptide 19], the “hemolytic activity (dose response)” value in data set [2] is on record as “practically devoid of hemolytic activity”.

Turning to `CC(C)C[C@H](NC(=O)[C@H](CC(C)C)NC(=O)[C@@H](CC(C)C)NC(=O)[C@@H](CC(C)C)NC(=O)[C@H](CC(C)C)NC(=O)[C@@H](N)CCCCN)C(=O)N[C@@H](CCCCN)C(=O)N[C@H](CC(C)C)C(=O)N[C@@H](CC(C)C)C(=O)N[C@H](CC(C)C)C(=O)N[C@@H](CC(C)C)C(=O)N[C@@H](CCCCN)C(N)=O` [Peptide 22], the “hemolytic activity (in words)” value in data set [2] was “considerable hemolytic activity”.

As to `CC(C)C[C@H](NC(=O)[C@H](CCCCN)NC(=O)[C@@H](CC(C)C)NC(=O)[C@@H](CC(C)C)NC(=O)[C@H](CC(C)C)NC(=O)[C@@H](N)CCCCN)C(=O)N[C@@H](CC(C)C)C(=O)N[C@H](CC(C)C)C(=O)N[C@@H](CCCCN)C(=O)N[C@H](CC(C)C)C(=O)N[C@@H](CC(C)C)C(=O)N[C@@H](CCCCN)C(N)=O` [Peptide 23], in data set [2], the “hemolytic activity (in words)” value is “devoid of hemolytic activity”.

Turning to `CC(C)C[C@H](NC(=O)[C@H](CCCCN)NC(=O)[C@@H](CC(C)C)NC(=O)[C@@H](CC(C)C)NC(=O)[C@H](CC(C)C)NC(=O)[C@@H](N)CCCCN)C(=O)N[C@@H](CCCCN)C(=O)N[C@H](CC(C)C)C(=O)N[C@@H](CCCCN)C(=O)N[C@H](CC(C)C)C(=O)N[C@@H](CC(C)C)C(=O)N[C@@H](CCCCN)C(N)=O` [Peptide 24], the “hemolytic activity (in words)” value in data set [2] was “devoid of hemolytic activity”.

As to “(Lys-Leu-Leu-Leu-Lys-Leu-Leu-Leu-Lys-Leu-Leu-Lys-Cys-NH2)5 Lys-Leu-Leu-Leu-Lys-Leu-Leu-Leu-Lys-Leu-Leu-Lys-NH2 [Peptide 92]”, the “% hemolysis at 100 μM” value in data set [2] was determined as 0%. Moreover, in the data set with Bacillus megaterium Bm11, the “Minimal Inhibitory Concentration B. megaterium (Bm11)” value was determined as 0.05 µM. For the same compound, in the data set on Escherichia coli D21, the “Minimal Inhibitory Concentration E. coli (D21)” value was found to be 0.2 µM.

Take “(Lys-Leu-Leu-Leu-Lys-Leu-Lys-Leu-Lys-Leu-Leu-Lys-Cys-NH2)5 Lys-Leu-Leu-Leu-Lys-Leu-Leu-Leu-Lys-Leu-Leu-Lys-NH2 [Peptide 93]”: the “% hemolysis at 100 μM” value in data set [2] amounted to 0%. Also, the “Minimal Inhibitory Concentration B. megaterium (Bm11)” value with Bacillus megaterium Bm11 came out at 0.02 µM. In the data set on Escherichia coli D21, the “Minimal Inhibitory Concentration E. coli (D21)” value stood at 0.1 µM.

With “Gly-Phe-Phe-Ala-Leu-Ile-Pro-Lys-Ile-Ile-Ser-Ser-Pro-Leu-Phe-Lys-Thr-Leu-Leu-Ser-Ala-Val-(NH--CH2 --CH2 --NH2)2 (GFFALI[dP]KIISSPLFKTLLSAV; not fully specified (C-terminus); printed as Gly-Phe-Phe-Ala-Leu-Ile-Pro-Lys-Ile-Ile-Ser-Ser-Pro-Leu-Phe-Lys-Thr-Leu-Leu-Ser-Ala-Val-(NH—$CH_2$—$CH_2$—$NH_2$)$_2$; also: C-terminus written (NH--CH2--CH2--NH2)2) [Peptide 2]”, the “% hemolysis at 50 μM peptide” value in data set [2] is 0%. In addition, the “Minimal Inhibitory Concentration B. megaterium (Bm11)” value in the data set on Bacillus megaterium Bm11 turned out to be 2.5 µM. In addition, the “Minimal Inhibitory Concentration E. coli (D21)” value with Escherichia coli D21 is 12.5 µM. For the same compound, the “Minimal Inhibitory Concentration A. calcoaceticus (Ac11)” value in data set [4] was 12.5 µM.

In the case of KLLLKLLK [Peptide 29], the “% hemolysis at 100 μM” value in data set [2] is 0%. The “Minimal Inhibitory Concentration B. megaterium (Bm11)” value in the data set on Bacillus megaterium Bm11 was 3 µM. Besides, the “Minimal Inhibitory Concentration E. coli (D21)” value in the data set with Escherichia coli D21 was determined as 3 µM.

As for KLLLLK [Peptide 28], the “% hemolysis at 100 μM” value in data set [2] is given as 0%. In the data set with Bacillus megaterium Bm11, the “Minimal Inhibitory Concentration B. megaterium (Bm11)” value was 50 µM. Moreover, the “Minimal Inhibitory Concentration E. coli (D21)” value with Escherichia coli D21 stood at 200 µM.

“Lys-Gly-Phe-Phe-Ala-Leu-Ile-Pro-Lys-Ile-Ile-Ser-Ser-Pro-Leu-Phe-Lys-Thr-Leu-Leu-Ser-Ala-Val-(NH--CH2 --CH2 --NH2)2 (KGFFALI[dP]KIISSPLFKTLLSAV; not fully specified (C-terminus); printed as Lys-Gly-Phe-Phe-Ala-Leu-Ile-Pro-Lys-Ile-Ile-Ser-Ser-Pro-Leu-Phe-Lys-Thr-Leu-Leu-Ser-Ala-Val-(NH—$CH_2$—$CH_2$—$NH_2$)$_2$; also: D-Pro7 (position 7 is Ile), C-terminus written (NH--CH2--CH2--NH2)2) [Peptide 4]”: in data set [2], the “% hemolysis at 50 μM peptide” value worked out at 0%. Moreover, the “Minimal Inhibitory Concentration B. megaterium (Bm11)” value in the data set on Bacillus megaterium Bm11 worked out at 1.5 µM. Besides, the “Minimal Inhibitory Concentration E. coli (D21)” value with Escherichia coli D21 amounted to 7.5 µM. Moreover, the “Minimal Inhibitory Concentration A. calcoaceticus (Ac11)” value in data set [4] was 7.5 µM.

Turning to “Lys-Lys-Gly-Phe-Phe-Ala-Leu-lle-Er-Lys-Ile-Ile-Ser-Ser-Pro-Leu-Phe-Lys-Thr- Leu-Leu-Ser-Ala-Val-(NH--CH2 --CH2 --NH2)2 [Peptide 5]”, the “% hemolysis at 50 μM peptide” value in data set [2] is reported as 0%. In addition, the “Minimal Inhibitory Concentration B. megaterium (Bm11)” value with Bacillus megaterium Bm11 was 0.75 µM. Further, the “Minimal Inhibitory Concentration E. coli (D21)” value in the data set on Escherichia coli D21 amounted to 3.5 µM. Further, the “Minimal Inhibitory Concentration A. calcoaceticus (Ac11)” value in data set [4] is 3.5 µM.
